In US6936735B2, “Photostable cationic organic sunscreen compounds and compositions obtained therefrom” (EMD Chemicals, Inc., priority 2002, dated 2005):

Assays:
Format in all cases: physicochemical
[1] = Comparative photostability of thin film under UV-B irradiation (Q-UV Accelerated Weathering Tester); details: UV-B (1 MED/h), thin film with 0.1% PVP-VA on glass plate, Example 3 1%, Incroquat 283 1%, HP610 0.1%
Procedure: (§1) The photostability of compounds of the present invention as well as existing commercial cationic sunscreens is tested according to the procedure described below: • Photostability: Comparative Photostability of Example 3, Incroquat® 283 and Escalol® HP610
(§2) Three products [Example 3 (1%), Incroquat 283 (1%) and HP610 (0.1%)] were tested for their photostability by dissolving separately in water or ethanol-water solution containing 0.1% Poly(vinylpyrrolidone-vinyl acetate) copolymer (PVP-VA S630 from ISP). Air drying on a glass plate for one hour gave a thin film, which were irradiated under UV A (2 MED/h) and UV B (1 MED/h) light separately over an 8 h period in a Q-UV Accelerated Weathering Tester. Photodegradation was calculated from the decrease in the maximum absorption of the respective products. The results are illustrated in the Tables 1 and 2.

Solubility = details: for solubility in water: water / aqueous solution
[2] = Comparative photostability of thin film under UV-A irradiation (Q-UV Accelerated Weathering Tester); details: UV-A (2 MED/h), thin film with 0.1% PVP-VA on glass plate, Example 3 1%, Incroquat 283 1%, HP610 0.1%
Procedure: as §1, §2

UV absorption maximum = details: EtOH:water—70%:30%
Procedure: The mass was degassed for one hour at 90-95 deg. C. under vacuum. The yield obtained is about 85%. […] A 50% solution in water was prepared for ease of handling.

Molecule	% Product Retained After 1 hr [1] [%]	% Product Retained After 2 hr [1] [%]	% Product Retained After Initial [1] [%]	maximal concentration reached in solution (Solubility; aqueous-ethanolic solution (30:70%)) [%]	solubility in water (Solubility)	% Product Retained After 2 hr [2] [%]	% Product Retained After 4 hr [2] [%]	% Product Retained After 6 hr [2] [%]	% Product Retained After Initial [2] [%]	λmax (UV absorption maximum) [nm]
CCCCCCCCCCCC[N+](C)(C)CCCNC(=O)c1ccc(N(C)C)cc1.Cc1ccc(S(=O)(=O)[O-])cc1 [Escalol HP ®-610]	33	28	100	0.25	very poor solubility	50	40	30	100	
Bis-N-[3(N,N-dimethylamino)propyl]-3,4,5-trimethoxy benzylidene malonamide bis ethylsulfate [Example 3]	96	93	100		soluble in water	98	97	94	100	301
